From ChEMBL document CHEMBL4840311, “Discovery of novel nitrogenous heterocyclic-containing quinoxaline-1,4-di-N-oxides as potent activator of autophagy in M.tb-infected macrophages” (Eur J Med Chem, 2021)
Values after ≈ are worked out from the molar mass of the structure shown.

Columns and labels:
[1] = system: Mycobacterium tuberculosis; experiment: Antimycobacterial activity against Mycobacterium tuberculosis H37Rv ATCC 27294 assessed as inhibition of bacterial growth measured after 5 days by microplate alamar blue assay; type: functional; details: H37Rv ATCC 27294, 120 h, time 5 day
Vero = experiment: Cytotoxicity against African green monkey Vero cells assessed as reduction in cell viability measured after 72 hrs by MTT assay; type: cell-based; details: Chlorocebus sabaeus
[2] = Selectivity index, ratio of IC50 for African green monkey Vero cells measured after 72 hrs by MTT assay to MIC for antimycobacterial activity against Mycobacterium tuberculosis H37Rv ATCC 27294 assessed as inhibition of bacterial growth measured after 5 days by microplate alamar blue assay; type: toxicity; details: read-out: Selectivity Index
[3] = system: Mycobacterium tuberculosis; experiment: Antimycobacterial activity against Mycobacterium tuberculosis H37Rv infected in mouse J774.A1 cells assessed as log reduction of bacterial growth at 1X MIC measured after 1 days by visual colony counting analysis; type: functional; details: time 1 day
J774.A1 = experiment: Cytotoxicity against mouse J774.A1 cells assessed as reduction in cell viability measured after 72 hrs by MTT assay; type: cell-based; details: J774.A1, 72 h
[4] = system: Mycobacterium tuberculosis; experiment: Antimycobacterial activity against Mycobacterium tuberculosis H37Rv infected in mouse J774.A1 cells assessed as log reduction of bacterial growth at 10X MIC measured after 1 days by visual colony counting analysis; type: functional; details: time 1 day
[5] = system: Mycobacterium tuberculosis; experiment: Antimycobacterial activity against Mycobacterium tuberculosis H37Rv infected in mouse J774.A1 cells assessed as log reduction of bacterial growth at 1X to 40X MIC measured after 4 days by visual colony counting analysis; type: functional; details: time 4 day

Structure (SMILES) | MIC [1] [µg/mL] | IC50 (Vero) [µM] | selectivity ratio at 72 hrs [2] | also measured
CO[C@H]1/C=C/O[C@@]2(C)Oc3c(C)c(O)c4c(O)c(c(/C=N/N5CCN(C)CC5)c(O)c4c3C2=O)NC(=O)/C(C)=C\C=C\[C@H](C)[C@H](O)[C@@H](C)[C@@H](O)[C@@H](C)[C@H](OC(C)=O)[C@@H]1C [RIFAMPIN] | 0.0625 (≈ 0.0759 µM) | – | – | –
CCOC(=O)c1c(C(F)(F)F)[n+]([O-])c2cc(-n3ccnc3)c(F)cc2[n+]1[O-] | 0.25 (≈ 0.647 µM) | 19.4 | 30 | –
CC(=O)c1c(C)[n+]([O-])c2cc(N3CCNC(C)C3)c(F)cc2[n+]1[O-] (stereo not drawn) | 16 (≈ 47.9 µM) | – | – | –
CCOC(=O)c1c(C)[n+]([O-])c2cc(N3CCCC3)c(F)cc2[n+]1[O-] | 64 (≈ 191 µM) | – | – | –
CCCC(=O)c1c(C)[n+]([O-])c2ccccc2[n+]1[O-] | 64 (≈ 260 µM) | – | – | –
Cc1c(C(=O)CC(C)C)[n+]([O-])c2cc(F)c(N3CCNCC3)cc2[n+]1[O-] | 32 (≈ 88.3 µM) | – | – | –
CCOC(=O)c1c(C)[n+]([O-])c2cc(N3CCCCC3)c(F)cc2[n+]1[O-] | 32 (≈ 91.6 µM) | – | – | –
CCOC(=O)c1c(C)[n+]([O-])c2cc(N3CCOCC3)c(F)cc2[n+]1[O-] | 64 (≈ 182 µM) | – | – | –
Cc1c(C(=O)OCc2ccccc2)[n+]([O-])c2cc(F)c(-n3ccnc3)cc2[n+]1[O-] | 0.25 (≈ 0.634 µM) | 107 | 169 | log(activity) [3]: 0.04; IC50 (J774.A1): 77.7 µM; log(activity) [4]: 0.18; log(activity) [5]: 2.15
CC(=O)c1c(C)[n+]([O-])c2cc(F)c(F)cc2[n+]1[O-] | 2 (≈ 7.87 µM) | 22.4 | 2.8 | –
CC(=O)c1c(C(F)(F)F)[n+]([O-])c2cc(-n3ccnc3)c(F)cc2[n+]1[O-] | 0.25 (≈ 0.702 µM) | 46.5 | 66.2 | –
CC(=O)c1c(C)[n+]([O-])c2ccccc2[n+]1[O-] [MEQUINDOX] | 8 (≈ 36.7 µM) | – | – | –
CCOC(=O)c1c(C)[n+]([O-])c2cc(-n3cncn3)c(F)cc2[n+]1[O-] | 0.125 (≈ 0.375 µM) | 155 | 412 | IC50 (J774.A1): 77.7 µM
CC(=O)c1c(C)[n+]([O-])c2cc(N3CCNCC3)ccc2[n+]1[O-] | 64 (≈ 212 µM) | – | – | –
Cc1c(C(=O)OC(C)C)[n+]([O-])c2cc(-n3ccnc3)c(-n3ccnc3)cc2[n+]1[O-] | 8 (≈ 20.3 µM) | – | – | –
CCOC(=O)c1c(C(F)(F)F)[n+]([O-])c2cc(N3CCNCC3)c(F)cc2[n+]1[O-] | 0.5 (≈ 1.24 µM) | 31.3 | 25.3 | –
